Article PMC8280721, “Structural and Functional Analysis of a Multimodular Hyperthermostable Xylanase-Glucuronoyl Esterase from Caldicellulosiruptor kristjansonii” (Biochemistry, 2021)

Columns and labels:
Format in all cases: binding
[1] = target: T1, CkGE15A (GE15A, glucuronoyl esterase domain of CkXyn10C-GE15A) (Caldicellulosiruptor acetigenus, UniProt E4S6E9); experiment: DSF (Tycho NT.[…]); conditions: 10000 µM; 0.5 mg/mL protein, 50 mM MOPS pH 7.2; second inflection point; no-ligand control Ti2 81.3 ± 0.37 °C
T1 construct: gene Calkr_2245; isolated CE15 domain (entire GE domain Thr1341-Arg1685 seen in structure); E. coli BL21(DE3), pET28a-TEVc; full-length protein 2159 residues
T1 sequence (E4S6E9 entry or part of it): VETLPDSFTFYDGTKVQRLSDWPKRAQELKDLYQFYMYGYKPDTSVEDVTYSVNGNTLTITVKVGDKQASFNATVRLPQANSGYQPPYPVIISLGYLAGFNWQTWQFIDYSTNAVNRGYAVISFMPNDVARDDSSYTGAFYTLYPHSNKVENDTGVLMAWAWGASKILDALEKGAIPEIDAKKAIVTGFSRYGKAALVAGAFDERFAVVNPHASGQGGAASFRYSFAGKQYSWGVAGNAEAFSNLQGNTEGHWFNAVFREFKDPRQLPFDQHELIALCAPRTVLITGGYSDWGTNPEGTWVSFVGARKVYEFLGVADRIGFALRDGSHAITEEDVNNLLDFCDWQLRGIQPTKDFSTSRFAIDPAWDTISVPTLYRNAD

[2] = target: T2, CBM9.3 (CkCBM9.3, third CBM9 domain of CkXyn10C-GE15A) (Caldicellulosiruptor acetigenus, UniProt E4S6E9); experiment: DSF (Tycho NT.[…]); conditions: 100000 µM; 0.5 mg/mL protein, 50 mM Tris pH 8, 100 mM NaCl; 100 mM ligand; no-ligand control Ti 61.0 ± 0.88 °C
T2 construct: gene Calkr_2245; isolated CBM9.3 domain (Lys1072-Leu1252) plus C-terminal linker Lys1253-Pro1265; N-terminal His6 tag and TEV site (not seen in density); E. coli BL21(DE3), pET28a-TEVc; full-length protein 2159 residues
T2 sequence (E4S6E9 entry or part of it): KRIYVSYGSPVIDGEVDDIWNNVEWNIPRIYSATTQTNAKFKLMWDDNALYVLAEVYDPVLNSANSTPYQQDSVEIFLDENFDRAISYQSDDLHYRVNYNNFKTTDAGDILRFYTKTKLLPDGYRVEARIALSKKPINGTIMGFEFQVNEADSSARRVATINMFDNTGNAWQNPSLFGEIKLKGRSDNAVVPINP

[3] = target: T2, CBM9.3 (CkCBM9.3, third CBM9 domain of CkXyn10C-GE15A); experiment: X-ray crystallography (soak […], […] min); conditions: crystal at pH 4.2; aromatic clamp Tyr89/Trp191

Molecule: O=C(OCc1ccccc1)[C@H]1OC(O)[C@H](O)[C@@H](O)[C@@H]1O (stereo partly shown) [benzylglucuronate]
- Ti2 (°C) ± SD [1]: 79.3 ± 0.49 °C

Molecule: OC[C@H]1OC(O)[C@H](O)[C@@H](O)[C@@H]1O (stereo partly shown) [glucose]
- Ti (°C) ± SD [2]: 66.7 ± 0.195 °C
- X-ray crystallography (soak 500 mM, 5 min) [3]: we obtained structures with bound glucose and cellobiose and also with cellotriose

Molecule: aldopentauronic acid
- Ti2 (°C) ± SD [1]: 79.2 ± 0.49 °C
